Test [1] concerns SRS-A induced constriction of the guinea pig ileum. Description: Guinea Pig Ileum, In Vitro (SRS-A antagonism). In kind it is cell-based. To be noted: Cavia porcellus. The method, then:
The guinea pig ileum bioassay system has been described by Orange and Austen, Adv. Immunol. […] A 1.5 cm segment is removed from animals weighing 300-400 g. and suspended in an organ bath containing 10 ml. of Tyrodes solution with 10^-6 M atropine sulfate and 10^-6 M pyrilamine maleate. […] The SRS-A utilized in this screen is obtained by challenging chopped lung fragments from actively sensitized guinea pigs with egg albumin, in vitro. A dose-response curve to SRS-A challenge is established for the ileum. […] The drug concentration which inhibits, by 50%, the SRS-A induced constriction of the guinea pig ileum is determined.

The test system of test [2] is leukotriene E4. As to the kind of experiment: Guinea Pig Bronchoconstriction, In Vivo (leukotriene E4 i.v. challenge, drug i.v.). To be noted: 10 mg/kg i.v., maximally constrictory dose of leukotriene E4 i.v. The arrangement: species or system guinea pig (Hartley strain, male). As to the method:
Male guinea pigs (Hartley strain) weighing 300 to 450 grams are anesthetized with urethane (2 g/Kg) intraperitoneally and a polyethylene cannula is inserted into the jugular vein for intravenous drug administration. Tracheal pressure is recorded from a cannula inserted in the trachea and connected to a Statham pressure transducer. Respiration is paralyzed with succinyl choline (1.2 mg/kg, i.v.) and the animals are mechanically respirated ([…] rodent respirator) at 40 breaths/minute and 2.5 cc tidal volume. The minutes thereafter, propranolol (0.1 mg/kg, i.v.) is administered. Five minutes later, the animals are pretreated intravenously for 30 seconds (at 10 mg/kg) with test drug or control vehicle. The animals are subsequently challenged with a maximally constrictory dose of leukotriene E4 also administered intravenously. The change (cm H2 O) between pre and peak ventilatory pressure readings is averaged calculated from the following formula: [formula]

Test [3] has as its system LTE4. As to the kind of experiment: Rat Skin Permeability, in Vivo (LTE4-induced wheal). To be noted: 10 mg/kg i.v., LTE4 intradermal, 30 min, 5 animals. As to the method: In this model the ability of LTE4 to increase vascular permeability in rat skin was utilized. Anesthetized rats, pretreated for 30 minutes with an antihistamine, pyrilamine maleate, (50 mg/kg i.p.) and a serotonin antagonist, methylsergide maleate (4 mg/kg i.p.), were injected intradermally with a dose of LTE4 which gave a maximum wheal (in 0.05 ml saline). After introduction of test drug (at 10 mg/kg, i.v.) the animals were immediately treated intravenously with Evans blue dye i.v. (0.5%) in the tail vein resulting in the formation of a skin wheal. Thirty minutes later the animals were sacrificed and the skin wheal size was measured. The average response in 5 animals (4 intradermal injections per animal) treated with test compound was compared to that obtained in a similar group of control animals to determine the percent inhibition by the drug. A representative compound of the present invention, i.e., 6-(4-acetyl-3-hydroxy-2-propylphenoxy)hexanoic acid, caused a 35% reduction in skin wheal when tested at 10 mg/kg i.v.

The test system of test [4] is LTE4. Description: Aerosol Test (LTE4-induced bronchoconstriction, drug by inhalation). In kind it is in vivo, guinea pig (Hartley strain, male). To be noted: 1% (W/V) aerosol solution, five minute exposure, LTE4 i.v. challenge. The method, then: Male guinea pigs (Hartley strain) weighing 300 to 500 g are anesthetized with urethane (2 g/kg) intraperitoneally and a polyethylene cannula is inserted into the jugular vein for test compound administration. Tracheal pressure is recorded from a cannula inserted in the trachea and connected to a Statham pressure transducer. After surgical preparation of the animals, a period of time is allowed for pulmonary functions to stabilize. For testing purposes, drugs are administered according to the following protocol. Propranolol (0.1 mg/kg) is administered intravenously while the animals breathed spontaneously. Five minutes thereafter, the animals are exposed for a five minute period to a 1% (W/V) aerosol solution of test compound (adjusted to an alkaline pH where necessary for compound solubilization) or to distilled water of the appropriate pH (for control purposes). A Monaghan (Model 750) ultrasonic nebulizer is used to administer all compounds by inhalation. Aqueous solutions are prepared fresh and introduced into the chamber of the nebulizer. The output of the nebulizer is made available to the animal by directing a bias flow of aerosol through a y tube connected to the tracheal cannula. At the end of the exposure period, the animals are paralyzed with succinylcholine (1.2 mg/kg, i.v.) and mechanically respirated (Harvard rodent respirator) at 40 breaths/min and 2.5 cc tidal volume. […]

Setting [5] is: guinea pig ileum, SRS-A challenge at EC50, 37° C., Table I, read-out: In vitro SRSA Antagonism Test, Guinea Pig Ileum IC50.

The values that follow come from patent US4628115A, “Substituted 4-acetyl-3-hydroxyphenoxy alkanoic acids” (Hoffmann-La Roche Inc., priority 1985, dated 1986).

The structures appear in SMILES notation. Like-named read-outs stand apart in the source and are kept apart here.

Broadly, the IC50 is the concentration at which inhibition is half-maximal. For the compound `CCCc1c(OCC(O)COc2ccc3c(=O)cc(C(=O)O)oc3c2CCC)ccc(C(C)=O)c1O` (centres unmarked) [7-[3-(4-acetyl-3-hydroxy-2-propylphenoxy)-2-hydroxypropoxy]-4-oxo-8-propyl-4 H-1-benzopyran-2-carboxylic acid, reference compound], the half-maximal inhibitory concentration (IC50) in test [1] (read-out: IC50 (standard SRS-A antagonist)) came out at 0.035 µM. Further, the “inhibition of leukotriene E4 bronchoconstriction” value in test [2] was 98%.

Take `CCCc1c(OCCOCCOCCOCCC(=O)O)ccc(C(C)=O)c1O` [(CH2)2 O(CH2)2 O(CH2)2 O(CH2)2, 3-[2-[2-[2-(4-Acetyl-3-hydroxy-2-propylphenoxy)ethoxy]ethoxy]ethoxy]propanoic acid semihydrate]: the IC50 in test [1] (setting [5]) amounted to 6 µM.

As for `CCCc1c(OCCOCCC(=O)O)ccc(C(C)=O)c1O` [(CH2)2 O(CH2)2, 3-[2-(4-Acetyl-3-hydroxy-2-propylphenoxy)ethoxy]propanoic acid semihydrate], the IC50 in test [1] (setting [5]) was 5 µM.

For the compound `CCCc1c(OCCC(=O)O)ccc(C(C)=O)c1O` [(CH2)2, 3-(4-Acetyl-3-hydroxy-2-propylphenoxy)propanoic acid], in test [1] (setting [5]), the IC50 stood at 10 µM.

As for `CCCc1c(OCCCC#CC(=O)O)ccc(C(C)=O)c1O` [(CH2)3 CC, 6-(4-Acetyl-3-hydroxy-2-propylphenoxy)-2-hexynoic acid], in test [1] (setting [5]), the IC50 stood at 1 µM.

Turning to `CCCc1c(OCCCC(=O)O)ccc(C(C)=O)c1O` [(CH2)3, 4-(4-Acetyl-3-hydroxy-2-propylphenoxy)butanoic acid], in test [1] (setting [5]), the IC50 amounted to 10 µM.

As for `CCCc1c(OCCCCC(=O)O)ccc(C(C)=O)c1O` [(CH2)4, 5-(4-Acetyl-3-hydroxy-2-propylphenoxy)pentanoic acid], the IC50 in test [1] (setting [5]) came to 5 µM.

Consider `CCCc1c(OCCCCCC(=O)O)ccc(C(C)=O)c1O` [(CH2)5, 6-(4-Acetyl-3-hydroxy-2-propylphenoxy)hexanoic acid], for which, in test [3], the “reduction in skin wheal” value was 35%. The IC50 in test [1] (setting [5]) stood at 1 µM. Moreover, in test [4], the “inhibition of the bronchoconstriction” value was 36%. The “inhibition of leukotriene E4 bronchoconstriction” value in test [2] came to 73%.

Regarding `CCCc1c(OCCCCCCC(=O)O)ccc(C(C)=O)c1O` [(CH2)6, 7-(4-Acetyl-3-hydroxy-2-propylphenoxy)heptanoic acid], in test [1] (setting [5]), the IC50 came to 5 µM.

In the case of `CCCc1c(OCCCCCCCC(=O)O)ccc(C(C)=O)c1O` [(CH2)7, 8-(4-Acetyl-3-hydroxy-2-propylphenoxy)octanoic acid], in test [1] (setting [5]), the IC50 amounted to 5 µM.

Take `CCCc1c(OCCCCCCCCCCC(=O)O)ccc(C(C)=O)c1O` [(CH2)10, 11-(4-Acetyl-3-hydroxy-2-propylphenoxy)undecanoic acid]: the IC50 in test [1] (setting [5]) worked out at 10 µM.

Consider `CCCc1c(OCC#CCCCC(=O)O)ccc(C(C)=O)c1O` [CH2 CC(CH2)3, 7-(4-Acetyl-3-hydroxy-2-propylphenoxy)-5-heptynoic acid], for which the IC50 in test [1] (setting [5]) was found to be 1 µM.

Turning to `CCCc1c(OCC(=O)O)ccc(C(C)=O)c1O` [CH2, (4-Acetyl-3-hydroxy-2-propylphenoxy)acetic acid], the half-maximal inhibitory concentration (IC50) in test [1] (setting [5]) was determined as 10 µM.
